In patent publication US10988477B2 (Merck Patent GmbH, priority 2018, dated 2021):
pKi: −log10 of the molar value.

Target: GCN2 kinase (Homo sapiens, UniProt Q9P2K8)
Experiment: GCN2 enzyme inhibition assay (Transcreener ADP2 fluorescence polarization)
Format: biochemical
Details: compounds of Formula II; 280 μM ATP, 4 nM GCN2 kinase
Summary of the method: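 Human GCN2 (4 nM) preincubated 10 min with compound (0–8 μM) and 200 μM (RS)7 peptide in Tris-HCl pH 7.5, NaCl, MgCl2, DTT. Reaction started with 280 μM ATP, run 1 h at 25 °C. ADP detected by Transcreener fluorescence polarization. IC50 and Ki(app) fitted by tight-binding algorithm.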

Sequence of GCN2 kinase (Q9P2K8 whole entry): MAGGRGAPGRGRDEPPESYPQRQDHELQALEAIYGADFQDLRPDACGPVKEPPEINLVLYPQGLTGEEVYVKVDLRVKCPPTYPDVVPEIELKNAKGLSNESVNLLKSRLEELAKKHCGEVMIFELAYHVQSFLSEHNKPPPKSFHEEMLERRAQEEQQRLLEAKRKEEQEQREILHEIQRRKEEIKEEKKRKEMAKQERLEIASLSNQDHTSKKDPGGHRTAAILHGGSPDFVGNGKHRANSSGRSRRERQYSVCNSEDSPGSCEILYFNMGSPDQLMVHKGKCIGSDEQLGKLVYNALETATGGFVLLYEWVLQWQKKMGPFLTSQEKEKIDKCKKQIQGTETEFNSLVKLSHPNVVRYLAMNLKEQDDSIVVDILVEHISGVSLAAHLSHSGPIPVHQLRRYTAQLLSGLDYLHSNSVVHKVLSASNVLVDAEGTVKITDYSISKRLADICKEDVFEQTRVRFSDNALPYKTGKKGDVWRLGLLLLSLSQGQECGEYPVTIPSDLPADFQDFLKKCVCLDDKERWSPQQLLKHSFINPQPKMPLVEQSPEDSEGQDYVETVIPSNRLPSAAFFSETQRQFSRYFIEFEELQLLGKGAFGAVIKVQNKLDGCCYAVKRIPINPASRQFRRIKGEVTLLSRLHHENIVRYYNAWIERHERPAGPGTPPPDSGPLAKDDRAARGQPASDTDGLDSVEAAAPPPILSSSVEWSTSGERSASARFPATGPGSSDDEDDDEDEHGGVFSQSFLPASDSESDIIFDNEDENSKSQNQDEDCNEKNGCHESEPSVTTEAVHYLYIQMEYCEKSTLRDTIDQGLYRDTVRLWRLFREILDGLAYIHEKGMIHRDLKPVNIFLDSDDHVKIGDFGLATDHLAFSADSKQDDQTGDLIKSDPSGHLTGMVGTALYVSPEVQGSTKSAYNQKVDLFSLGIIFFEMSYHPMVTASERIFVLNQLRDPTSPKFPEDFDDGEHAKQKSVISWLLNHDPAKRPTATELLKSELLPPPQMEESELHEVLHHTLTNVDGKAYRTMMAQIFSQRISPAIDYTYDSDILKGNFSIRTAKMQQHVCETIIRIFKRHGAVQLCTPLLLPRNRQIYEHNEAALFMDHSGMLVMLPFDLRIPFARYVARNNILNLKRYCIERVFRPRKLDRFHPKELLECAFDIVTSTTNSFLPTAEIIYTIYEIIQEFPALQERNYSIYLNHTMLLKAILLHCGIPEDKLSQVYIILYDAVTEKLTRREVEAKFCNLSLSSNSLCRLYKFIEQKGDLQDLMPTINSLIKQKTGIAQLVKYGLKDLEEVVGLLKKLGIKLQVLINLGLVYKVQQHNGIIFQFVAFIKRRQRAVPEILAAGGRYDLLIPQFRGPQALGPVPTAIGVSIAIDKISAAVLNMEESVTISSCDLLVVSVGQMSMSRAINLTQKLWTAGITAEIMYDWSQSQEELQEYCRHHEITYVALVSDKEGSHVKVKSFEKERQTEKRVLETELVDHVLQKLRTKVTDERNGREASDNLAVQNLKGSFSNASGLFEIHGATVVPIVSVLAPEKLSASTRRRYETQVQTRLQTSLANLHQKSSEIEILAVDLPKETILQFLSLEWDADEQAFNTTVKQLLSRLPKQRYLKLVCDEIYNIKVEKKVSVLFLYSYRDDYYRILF

| Structure (SMILES) | pKi |
| --- | --- |
| CC(NS(C)(=O)=O)C1CCCN(c2cc(-c3cnc4ccc(C(F)F)nn34)ncn2)C1 (stereo not drawn) [II-619, N-(1-(1-(6-(6-(Difluoromethyl)imidazo[1,2-b]pyridazin-3-yl)pyrimidin-4-yl)piperidin-3-yl)ethyl)methanesulfonamide] | 6.00 to 8.00 |
| CC(C)C(C)(O)C1CCCN(c2cc(-c3cnc4ccc(C(F)F)nn34)ncn2)C1 (stereo not drawn) [II-621, 2-(1-(6-(6-(Difluoromethyl)imidazo[1,2-b]pyridazin-3-yl)pyrimidin-4-yl)piperidin-3-yl)-3-methylbutan-2-ol] | 6.00 to 8.00 |
| CC1CN(c2cc(-c3cnc4ccc(C(F)F)nn34)ncn2)CC(CO)C1(F)F (stereo not drawn) [II-624, (1-(6-(6-(Difluoromethyl)imidazo[1,2-b]pyridazin-3-yl)pyrimidin-4-yl)-4,4-difluoro-5-methylpiperidin-3-yl)methanol] | 6.00 to 8.00 |
| OC1CCCC2C1NCCN2c1cc(-c2cnc3ccc(C(F)F)nn23)ncn1 (stereo not drawn) [II-628, 1-[6-[6-(Difluoromethyl)imidazo[1,2-b]pyridazin-3-yl]pyrimidin-4-yl]-3,4,4a,5,6,7,8,8a-octahydro-2H-quinoxalin-5-ol] | 6.00 to 8.00 |
| CCS(C)(=O)=NC1CC(C)CN(c2cc(-c3cnc4ccc(C(F)F)nn34)ncn2)C1 (stereo not drawn) [II-635, ((1-(6-(6-(Difluoromethyl)imidazo[1,2-b]pyridazin-3-yl)pyrimidin-4-yl)-5-methylpiperidin-3-yl)imino)(ethyl)(methyl)-λ^6-sulfanone] | 6.00 to 8.00 |
| CCC1CC(N=S(C)(C)=O)CN(c2cc(-c3cnc4ccc(C(F)F)nn34)ncn2)C1 (stereo not drawn) [II-648, ((1-(6-(6-(Difluoromethyl)imidazo[1,2-b]pyridazin-3-yl)pyrimidin-4-yl)-5-ethylpiperidin-3-yl)imino)dimethyl-λ^6-sulfanone] | > 8.00 |
| CC1CC(N=S(C)(C)=O)CN(c2cc(-c3cnc4ccc(C(F)F)nn34)ccn2)C1 (stereo not drawn) [II-691, ((1-(4-(6-(Difluoromethyl)imidazo[1,2-b]pyridazin-3-yl)pyridin-2-yl)-5-methylpiperidin-3-yl)imino)dimethyl-λ^6-sulfanone] | 6.00 to 8.00 |
| CC1CC(N=S(C)(C)=O)CN(c2cc(-c3cnc4ccc(C#N)nn34)ncn2)C1 (stereo not drawn) [II-702, 3-(6-(3-((Dimethyl(oxo)-λ^6-sulfanylidene)amino)-5-methylpiperidin-1-yl)pyrimidin-4-yl)imidazo[1,2-b]pyridazine-6-carbonitrile] | 6.00 to 8.00 |
| CC1CC(N=S(C)(C)=O)CN(c2cc(-c3cnc4ccc(C#N)nn34)ncn2)C1 (stereo not drawn) [II-703, 3-(6-(3-((Dimethyl(oxo)-λ^6-sulfanylidene)amino)-5-methylpiperidin-1-yl)pyrimidin-4-yl)imidazo[1,2-b]pyridazine-6-carbonitrile] | > 8.00 |
| CC1CC(P(C)(C)=O)CN(c2cc(-c3cnc4ccc(C(F)(F)F)nn34)ncn2)C1 (stereo not drawn) [II-712, 3-[6-(3-Dimethylphosphoryl-5-methyl-1-piperidyl)pyrimidin-4-yl]-6-(trifluoromethyl)imidazo[1,2-b]pyridazine] | < 6.00 |
| CC1CC(P(C)(C)=O)CN(c2cc(-c3cnc4ccc(C(F)(F)F)nn34)ncn2)C1 (stereo not drawn) [II-713, 3-[6-(3-Dimethylphosphoryl-5-methyl-1-piperidyl)pyrimidin-4-yl]-6-(trifluoromethyl)imidazo[1,2-b]pyridazine] | 6.00 to 8.00 |
| Cc1noc([C@H]2CN(c3cc(-c4cnc5ccc(C(F)(F)F)nn45)ccn3)C[C@@H](C)O2)n1 [II-744] | 6.00 to 8.00 |

Now from value to compound:

| pKi | Structure (SMILES) |
| --- | --- |
| 6.00 to 8.00 | CC(NS(C)(=O)=O)C1CCCN(c2cc(-c3cnc4ccc(C(F)F)nn34)ncn2)C1 (stereo not drawn) [II-620, N-(1-(1-(6-(6-(Difluoromethyl)imidazo[1,2-b]pyridazin-3-yl)pyrimidin-4-yl)piperidin-3-yl)ethyl)methanesulfonamide] |
| 6.00 to 8.00 | CC(C)C(C)(O)C1CCCN(c2cc(-c3cnc4ccc(C(F)F)nn34)ncn2)C1 (stereo not drawn) [II-622, 2-(1-(6-(6-(Difluoromethyl)imidazo[1,2-b]pyridazin-3-yl)pyrimidin-4-yl)piperidin-3-yl)-3-methylbutan-2-ol] |
| > 8.00 | CC1CN(c2cc(-c3cnc4ccc(C(F)F)nn34)ncn2)CC(CO)C1(F)F (stereo not drawn) [II-623, (1-(6-(6-(Difluoromethyl)imidazo[1,2-b]pyridazin-3-yl)pyrimidin-4-yl)-4,4-difluoro-5-methylpiperidin-3-yl)methanol] |
| 6.00 to 8.00 | CCS(=O)(CC)=NC1CC(C)CN(c2cc(-c3cnc4ccc(C(F)F)nn34)ncn2)C1 (stereo not drawn) [II-627, ((1-(6-(6-(Difluoromethyl)imidazo[1,2-b]pyridazin-3-yl)pyrimidin-4-yl)-5-methylpiperidin-3-yl)imino)diethyl-λ^6-sulfanone] |
| 6.00 to 8.00 | CC1CCN(c2cc(-c3cnc4ccc(C(F)F)nn34)ncn2)CC1N=S(C)(C)=O (stereo not drawn) [II-629, ((1-(6-(6-(Difluoromethyl)imidazo[1,2-b]pyridazin-3-yl)pyrimidin-4-yl)-4-methylpiperidin-3-yl)imino)dimethyl-λ^6-sulfanone] |
| 6.00 to 8.00 | CC1CC(N=S(C)(=O)C2CC2)CN(c2cc(-c3cnc4ccc(C(F)F)nn34)ncn2)C1 (stereo not drawn) [II-634, Cyclopropyl((1-(6-(6-(difluoromethyl)imidazo[1,2-b]pyridazin-3-yl)pyrimidin-4-yl)-5-methylpiperidin-3-yl)imino)(methyl)-λ^6-sulfanone] |
| 6.00 to 8.00 | CC1CC(N=S2(=O)CCCC2)CN(c2cc(-c3cnc4ccc(C(F)F)nn34)ncn2)C1 (stereo not drawn) [II-649, 1-((1-(6-(6-(Difluoromethyl)imidazo[1,2-b]pyridazin-3-yl)pyrimidin-4-yl)-5-methylpiperidin-3-yl)imino)tetrahydro-1H-1-λ^6-thiophene 1-oxide] |
| 6.00 to 8.00 | CS(C)(=O)=NC1CC(C(F)(F)F)CN(c2cc(-c3cnc4ccc(C(F)F)nn34)ncn2)C1 (stereo not drawn) [II-654, ((1-(6-(6-(Difluoromethyl)imidazo[1,2-b]pyridazin-3-yl)pyrimidin-4-yl)-5-(trifluoromethyl)piperidin-3-yl)imino)dimethyl-λ^6-sulfanone] |
| 6.00 to 8.00 | CS(C)(=O)=NC1CC(C(F)(F)F)CN(c2cc(-c3cnc4ccc(C(F)F)nn34)ncn2)C1 (stereo not drawn) [II-694, ((1-(6-(6-(Difluoromethyl)imidazo[1,2-b]pyridazin-3-yl)pyrimidin-4-yl)-5-(trifluoromethyl)piperidin-3-yl)imino)dimethyl-λ^6-sulfanone] |
| < 6.00 | CC1CCC(N=S(C)(C)=O)CN1c1cc(-c2cnc3ccc(C(F)F)nn23)ncn1 (stereo not drawn) [II-697, [1-[6-[6-(Difluoromethyl)imidazo[1,2-b]pyridazin-3-yl]pyrimidin-4-yl]-6-methyl-3-piperidyl]imino-dimethyl-λ^6-sulfanone] |
| < 6.00 | FC(F)(F)c1ccc2ncc(-c3cc(-c4cnn(C5CCOCC5)c4)ncn3)n2n1 [II-708, 3-[6-(1-Tetrahydropyran-4-ylpyrazol-4-yl)pyrimidin-4-yl]-6-(trifluoromethyl)imidazo[1,2-b]pyridazine] |
| < 6.00 | CC(=O)N1CCN(c2cc(-c3cnc4ccc(C(=O)O)nn34)ccn2)CC1 [II-734, 3-(2-(4-acetylpiperazin-1-yl)pyridin-4-yl)imidazo[1,2-b]pyridazine-6-carboxylic acid] |
| 6.00 to 8.00 | Cc1noc([C@@H]2CN(c3cc(-c4cnc5ccc(C(F)(F)F)nn45)ccn3)C[C@@H](C)O2)n1 [II-742] |
| 6.00 to 8.00 | C[C@H]1CN(c2cc(-c3cnc4ccc(C(F)(F)F)nn34)ccn2)C[C@@H](c2nc(C3CC3)no2)O1 [II-743] |
| 6.00 to 8.00 | Cc1noc([C@@H]2CN(c3cc(-c4cnc5ccc(C(F)(F)F)nn45)ccn3)C[C@H](C)O2)n1 [II-745] |
